Laboratory results published in PubChem BioAssay AID1190 (EPA DSSTox, 2008).
Activity calls are given as the source filed them. How the calls were made is not given here.

Test system: dog and primate chronic carcinogenicity bioassays, TD50
Assay: DSSTox (CPDBAS) Carcinogenic Potency Database Summary Dog & Primates Bioassay Results
Excerpt: The Carcinogenic Potency Database (CPDB) is a unique and widely used international resource of the results of over 6500 chronic, long-term animal cancer tests on over 1500 chemical substances. The CPDB provides easy access to the bioassay literature, with qualitative and quantitative analyses of both positive and negative experiments that have been published over the past 50 years in the general literature and by the National Cancer Institute/National Toxicology Program. The CPDB standardizes the diverse literature of cancer bioassays that vary widely in protocol, histopathological examination and nomenclature, and in the published author's choices of what information to provide in their papers. Results are reported in the CPDB for tests in rats, mice, hamsters, dogs, and nonhuman primates, and are based on the most positive result among all experiments for each sex-species. The DSSTox CPDBAS (all species) file incorporates data from the CPDB Summary Tables for the full list of over 1500 chemical substances tested in at least one species. Summary bioassay results for Dogs and Non-Human Primates (TD50, tumor sites) are provided in the CPDB Summary Tables and the DSSTox CPDBAS file for more than 30 chemical substances.
TD50 is a standardized quantitative measure of carcinogenic potency (analogous to an LD50) and is reported in the CPDB Summary Table for each species. Comments pertaining to the Dog or Primates (Cynomolgus, Rhesus, Bush Baby, Tree Shrew) TD50 (corresponding to footnote indices in the original CPDB Summary Table) are provided in the TD50_Dog_Primates_Note field. […] Target sites are reported for each species with a positive result in the CPDB on the basis of a positive author's opinion for the particular site and using all results from both the general literature and NCI/NTP bioassays. If a chemical has two or more target sites listed, the results may be from different experiments, and a single site may be a target organ in more than one experiment, as well. Blank entry in TargetSites field indicates no results reported.

| Structure (SMILES) | outcome | Potency [mg/kg/day] |
| --- | --- | --- |
| Clc1ccc(C(c2ccc(Cl)cc2)C(Cl)(Cl)Cl)cc1 | inactive; no positive results |  |
| C/[N+]([O-])=N/CO[C@@H]1O[C@H](CO)[C@@H](O)[C@H](O)[C@H]1O |  | 0.0657 |
| Nc1ccc(Cc2ccc(N)c(Cl)c2)cc1Cl | active |  |
| CCN(CC)N=O |  | 0.0536 |
| COc1cc2c(c3oc(=O)c4c(c13)CCC4=O)C1C=COC1O2 (stereo unspecified) |  | 0.0082 |
| O=C1NS(=O)(=O)c2ccccc21 | inactive; no positive results |  |
| Cc1ccc2cc3c(ccc4ccccc43)c3c2c1CC3 | inactive; no positive results |  |
| CN(C)c1ccc(N=Nc2ccccc2)cc1 | inactive; no positive results |  |
| Cn1c(N)nc2c3cccnc3ccc21 | active |  |
| ClC(Cl)Cl | inactive |  |
| Cc1cc(C)c(S(=O)(=O)O)cc1N=Nc1cc(S(=O)(=O)O)c2ccccc2c1O | inactive |  |
| CCCN(CCC)N=O |  | 0.0121 |
| O=S(=O)(O)NC1CCCCC1 | inactive; no positive results |  |
| C#C[C@@]1(O)CC[C@H]2[C@@H]3CCC4=CCCC[C@@H]4[C@H]3CC[C@@]21C | active |  |
| O=[As](O)(O)O | inactive |  |
| CCOC(N)=O |  | 65.2 |

| Structure (SMILES) | outcome | Potency [mg/kg/day] |
| --- | --- | --- |
| Nc1ccc(-c2ccc(N)c(Cl)c2)cc1Cl | active |  |
| CC(=O)Nc1ccc2c(c1)Cc1cc(NC(C)=O)ccc1-2 | inactive; no positive results |  |
| CC(=O)Nc1ccc2c(c1)Cc1ccccc1-2 | inactive; no positive results |  |
| C#C[C@]1(OC(C)=O)CC[C@H]2[C@@H]3CCC4=CC(=O)CC[C@@H]4[C@H]3CC[C@@]21C | inactive; no positive results |  |
| O=NN1CCCCC1 |  | 2.76 |
| O=P1(N(CCCl)CCCl)NCCCO1 (stereo unspecified) | inactive; no positive results |  |
| Cc1cccc(N=Nc2ccc(N(C)C)cc2)c1 | inactive; no positive results |  |
| COc1cc2c(c3oc4cccc(O)c4c(=O)c13)C1C=COC1O2 (stereo unspecified) | active |  |
| Cn1cnc([N+](=O)[O-])c1Sc1ncnc2nc[nH]c12 | inactive; no positive results |  |
| CN(C)N=O | inactive; no positive results |  |
| COc1cccc2c1C(=O)c1c(O)c3c(c(O)c1C2=O)C[C@@](O)(C(=O)CO)C[C@@H]3O[C@H]1C[C@H](N)[C@H](O)[C@H](C)O1 | inactive; no positive results |  |
| CNNCc1ccc(C(=O)NC(C)C)cc1 |  | 4.21 |
| Nc1ccc2ccccc2c1 |  | 5.74 |
| N[C@@H](Cc1ccc(N(CCCl)CCCl)cc1)C(=O)O | active; no positive results |  |
| CN(N=O)C(N)=O |  | 7.18 |
